Patent publication US20090130759A1, “Culture Medium Containing Kinase Inhibitor, and Use Thereof” (The University Court of the University of Edinburgh, priority 2005, published 2009)

Assays:
[1] = system: mouse and human ES cells; experiment: Attempt to repeat reported effects of GSK3 inhibitor on ES cells (Sato et al); format: cell-based; details: attempted repeat of published results
Text: Sato N, et al, Nat. Med. 2004, January 10(1) pp 55-63 describe the effects of a Glycogen Synthase Kinase 3 (GSK3) inhibitor, 6-bromoindirubin-3′-oxime, on mouse and human ES cells in serum containing medium. These effects, however, were observed only over a very short time frame, too short for firm conclusions to be drawn, and the influence of unknown factors in the undefined media used in that study may be significant.
Instead, ES cells died or differentiated in GSK-3β inhibitors alone.

[2] = system: mouse ES cells; experiment: Self-renewal culture of mouse ES cells with GSK3 inhibitor and gp130 signalling (LIF); format: cell-based; details: for promotion of self renewal of ES cells: GSK3 inhibitor used in ES cell culture
Experimental: (§1) Mouse and human ES cells were grown under various conditions, using N2B27 medium unless otherwise stated and in the presence or absence of the GSK-3β inhibitors CHIR99021, AR-AO144-18, SB216763 and SB415286.
N2 100× stock solution. For 10 ml: mix 1 ml insulin (final concentration 2.5 mg/ml) with 1 ml apo-transferrin (final concentration 10 mg/ml), 0.67 ml BSA (final concentration 5 mg/ml), 33 μl progesterone (final concentration […]), 100 μl putrescine (final concentration 1.6 mg/ml), 10 μl sodium selenite (final concentration 3 μM) and 7.187 ml DMEM/F12. Store at 4° C. and use within 1 month.
DMEM/F12-N2 medium: to 100 ml of DMEM/F12, add 1 ml of N2 100× stock solution. The final concentration of each component of N2 in the DMEM/F12 medium is: insulin, 25 μg/ml; apo-transferrin, 100 μg/ml; progesterone, 6 ng/ml; putrescine, 16 μg/ml; sodium selenite, 30 nM; BSA 50 μg/ml. Store at 4° C. and use within 1 month.
Neurolbasal/B27 medium: to 100 ml of Neurolbasal™ Medium, add 2 ml of B27 and 0.5-1 ml of 200 mM L-glutamine. Store at 4° C. and use within 1 month.
(§2) N2B27 medium: mix DMEM/F12-N2 medium with Neurolbasal/B27 medium in the ratio of 1:1. Add β-mercaptoethanol to a final concentration of 0.1 mM from the 0.1M stock. Store at 4° C. and use within 1 month.

[3] = system: GSK3; details: cited from earlier work
[4] = system: human ES cells; experiment: Human ES cell self-renewal in N2B27 medium on feeder cells; format: cell-based
Experimental: as §2
a) N2B27 medium with bFGF (10 ng/ml) and grown on feeder cells (HS27 human foreskin fibroblasts); and b) the same as a) but adding BMP4 (5 ng/ml) and LIF (10 ng/ml) as well as bFGF.

[5] = system: human ES cells; experiment: Feeder-free, conditioned medium-free culture of human ES cells after forced expression of an Eras gene; format: cell-based
Experimental: as §1, §2
a) in N2B27 medium with bFGF, grown on laminin, fibronectin, vitronectin or matrigel; b) the same as a) but adding BMP4 (5 ng/ml) as well as bFGF; and c) the same as a) but adding a GSK-3β inhibitor as well as bFGF.

[6] = N2B27, feeder cells, BMP4 (5 ng/ml) and LIF (10 ng/ml) added as well as bFGF

Q: Which “effects on mouse and human ES cells versus those described by Sato et al” value [1] does the source give for `O=C1Nc2cc(Br)ccc2/C1=C1/Nc2ccccc2/C1=N\O` [6-bromoindirubin-3′-oxime] here?
A: Its value is “effects opposite to those described”.

Q: Which “promotion of self renewal of ES cells” value [2] does the source give for `COc1ccc(CNC(=O)Nc2ncc([N+](=O)[O-])s2)cc1` [AR-AO144-18] here?
A: Its value is “promote self renewal of ES cells”.

Q: With `Cc1c[nH]c(-c2cnc(NCCNc3ccc(C#N)cn3)nc2-c2ccc(Cl)cc2Cl)n1` [CHIR 99021] as the molecule, how does the “specificity for GSK3” value [3] read?
A: Its value is “specific for GSK3”.

Q: And the “overall result of use in ES cell culture” value [2]?
A: The value was “Good results”.

Q: And the “promotion of self renewal of ES cells” value [2]?
A: Its value is “promote self renewal of ES cells”.

Q: And the “E14.1A ES cells weaned off feeder cells (FIG. 1)” value ([2]; LIF+CHIR99021 with serum)?
A: The value was “weaned off feeder cells and grown”.

Q: And the “self renewal of mouse ES cells” value ([2]; combination with LIF in a serum-free, fully defined medium)?
A: The value was “improved self renewal of mouse ES cells with very little differentiation”.

Q: Which “promotion of self renewal of ES cells” value [2] does the source give for `Cn1cc(C2=C(c3ccc(Cl)cc3Cl)C(=O)NC2=O)c2ccccc21` [SB216763] here?
A: The value was “promote self renewal of ES cells”.

Q: Which “promotion of self renewal of ES cells” value [2] does the source give for `O=C1NC(=O)C(c2ccccc2[N+](=O)[O-])=C1Nc1ccc(O)c(Cl)c1` [SB415286] here?
A: Its value is “promote self renewal of ES cells”.

Q: Which results are given for CHIR 98014?
A: specificity for GSK3 [3]: specific for GSK3; overall result of use in ES cell culture [2]: Good results; promotion of self renewal of ES cells [2]: promote self renewal of ES cells

Q: For LIF: gp130 receptor binding cytokine, which “sustaining human ES cell self-renewal” value [4, 6] is on record?
A: Its value is “could sustain human ES cell self-renewal”.

Q: Which “growth of human ES cells in feeder-free, conditioned medium-free conditions” value ([5]; N2B27 with bFGF, on laminin, fibronectin, vitronectin or matrigel) does the source give for bFGF: FGF receptor agonist here?
A: The value was “grew in feeder-free and conditioned medium-free conditions”.

Q: And the “sustaining human ES cell self-renewal” value ([4]; N2B27 medium with bFGF (10 ng/ml), on HS27 human foreskin fibroblast feeder cells)?
A: The value was “could sustain human ES cell self-renewal”.

B1: BMP4: agonist of the TGF-β superfamily (protein, UniProt P12644 293-408, looked up)
Bone morphogenetic protein 4: SPKHHSQRARKKNKNCRRHSLYVDFSDVGWNDWIVAPPGYQAFYCHGDCPFPLADHLNSTNHAIVQTLVNSVNSSIPKACCVPTELSAISMLYLDEYDKVVLKNYQEMVVEGCGCR
Q: What does the source list for B1?
A: growth of human ES cells in feeder-free, conditioned medium-free conditions ([5]; N2B27 with BMP4 (5 ng/ml) as well as bFGF): grew in feeder-free and conditioned medium-free conditions; sustaining human ES cell self-renewal [4, 6]: could sustain human ES cell self-renewal
